Source: PubChem BioAssay (NCI)
“And” between values parts separate entries of the source, which are not always exact repeats. Identical values can stand only once.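 Five concentrations, 48 hours, 96-well plates. At the GI50, growth is halved. TGI is the concentration that stops growth completely.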

What was measured:
Test in all cases: inhibition of tumour cell growth, NCI panel, 48 h
CCRF-CEM leukemia = tested on: CCRF-CEM leukemia
EKVX NSCLC = tested on: EKVX NSCLC
HL-60(TB) leukemia = tested on: HL-60(TB) leukemia
LOX IMVI melanoma = tested on: LOX IMVI melanoma
MDA-MB-231 breast = tested on: MDA-MB-231 breast
NCI-H226 lung = tested on: NCI-H226 lung
NCI-H460 lung = tested on: NCI-H460 lung
SR leukemia = tested on: SR leukemia
U251 CNS = tested on: U251 CNS
A498 renal = tested on: A498 renal

| Compound | GI50 (CCRF-CEM leukemia) | TGI (CCRF-CEM leukemia) | GI50 (EKVX NSCLC) | TGI (EKVX NSCLC) [µM] | GI50 (HL-60(TB) leukemia) | TGI (HL-60(TB) leukemia) | GI50 (LOX IMVI melanoma) | TGI (LOX IMVI melanoma) [µM] | GI50 (MDA-MB-231 breast) [µM] | TGI (MDA-MB-231 breast) [µM] | GI50 (NCI-H226 lung) [µM] | TGI (NCI-H226 lung) [µM] | GI50 (NCI-H460 lung) | TGI (NCI-H460 lung) | GI50 (SR leukemia) [µM] | TGI (SR leukemia) [µM] | GI50 (U251 CNS) [µM] | TGI (U251 CNS) | TGI (A498 renal) | GI50 (A498 renal) [µM] |
| --- | --- | --- | --- | --- | --- | --- | --- | --- | --- | --- | --- | --- | --- | --- | --- | --- | --- | --- | --- | --- |
| COc1cccc(-c2nn(-c3ccccc3)cc2-c2ccnc(NCCCNC(=O)c3cccc(C(F)(F)F)c3)c2)c1 | 6.11 µM | > 100 µM | 5.01 µM | 36.2 | 3.27 µM | 13.1 µM | 4.55 µM | 18.3 | 3.86 | 25.7 | 2.24 | 10.7 | 4.03 µM | 18.2 µM | 2.1 | 8.02 | 4.37 | 17.5 µM | – | – |
| O=[P+](O)c1ccccn1 | – | > 100 µM | – | > 100 | – | > 100 µM | – | > 100 | – | – | – | > 100 | – | > 100 µM | – | – | – | > 100 µM | > 100 µM | – |
| Cc1cccc(C)c1NC(=O)CCc1nnc2s/c(=C\c3ccc(N(C)C)cc3)c(=O)n12 | – | > 100 µM | – | – | – | > 100 µM | – | > 100 | – | – | – | > 100 | – | > 100 µM | – | > 100 | – | > 100 µM | > 100 µM | – |
| Cc1cc(N(CCC#N)CCC#N)ccc1N=Nc1cc(Cl)ccc1Cl | – | 19.2 µM | – | 26.5 | – | 16 µM | – | 14.2 | – | – | – | 25.2 | – | – | – | – | – | 33.5 µM | 34.7 µM | – |
| C/C(=N\NC(N)=S)c1ccc(C)c(C)c1 | – | > 100 µM | – | > 100 | – | 75.4 µM | – | > 100 | – | – | – | > 100 | – | > 100 µM | – | > 100 | – | > 100 µM | > 100 µM | – |
| CCC1C(C)C=NN1c1nc(N)nc(C(C#N)=Nc2ccc(N(C)C)cc2)n1 (stereo not given) | 6.11 µM | 20.4 µM | 11.3 µM | 32.2 | 7.62 µM | > 50 µM | 8.53 µM | 15.7 | 11.4 | 30.9 | 10.8 | 28.8 | 11.1 µM | 24.5 µM | 9.56 | > 50 | 8.93 | 16.8 µM | – | – |
| O=c1c2cc(Br)cc(Br)c2nc(CCCl)n1-c1ccc(O)c([N+](=O)[O-])c1 | – | 43.7 µM | – | 75.8 | – | 42.9 µM | – | – | – | – | – | 37.1 | – | 42.1 µM | – | 65.4 | – | 32.9 µM | 52 µM | – |
| C=C1c2ccccc2C(=O)c2c1c1c(C(=O)OC)c(OC(=O)OCc3ccc([N+](=O)[O-])cc3)ccc1n2Cc1ccccc1 | 1.78 µM | 6.83 µM | 33.6 µM | > 100 | – | – | 35.7 µM | > 100 | 18.3 | 65.6 | 19.6 | 44.1 | 26.8 µM | 88.6 µM | 2.59 | > 100 | 39.9 | > 100 µM | > 100 µM | 65.5 |
| CCOC(=O)C1C=C2O[C@@H]3OC4(CCCCC4)O[C@@H]3C2C2C(=O)CCC(=O)[C@@]12C(=O)OC (stereo not given in full) | – | > 100 µM | – | > 100 | – | > 100 µM | – | > 100 | – | – | – | > 100 | – | > 100 µM | – | – | – | > 100 µM | > 100 µM | – |
| C=CC(COC(=O)C(C)(C)OC(C)=O)c1ccc(OC(=O)C(C)C)c(OC)c1 (stereo not given) | – | > 22 µM | – | 34.1 | – | > 49 µM | – | > 33.3 | – | 9.36 | – | 49.9 | – | 7.78 µM | – | – | – | 25.8 µM | 37.7 µM | – |
| O=C(Cc1nc2sc3c(c2c(=O)[nH]1)CCCC3)Nc1ccccc1 | – | > 100 µM | – | > 100 | – | > 100 µM | – | > 100 | – | – | – | > 100 | – | > 100 µM | – | – | – | > 100 µM | > 100 µM | – |
| C[C@H]1C/C=C/[C@H]2[C@@H]3O[C@]3(C)[C@@H](C)[C@H]3[C@H](Cc4ccccc4)NC(=O)[C@]32OC(=O)O/C=C/[C@@](C)(O)C1=O | 0.0125 µM and 0.025 µM | 67.7 µM and 84.6 µM and 71.5 µM | 0.065 µM and 0.121 µM | – | 0.153 µM and 0.0973 µM | 11.3 µM and 2.95 µM and 4.97 µM | < 0.01 µM and 0.025 µM | – | – | 3.36 | 0.025 | – | 0.0125 µM and 0.025 µM | 43.8 µM and 125 µM and 36.9 µM | – | – | 0.025 | 1.14 µM and 4.02 µM and 0.424 µM | 0.0665 µM and 0.527 µM | 0.0126 |
| CCc1cccc(C(C)C)c1NC(=O)CCl | – | > 100 µM | – | > 100 | – | 70.8 µM | – | > 100 | – | – | – | > 100 | – | – | – | > 100 | – | > 100 µM | – | – |
| CCCCC(C)/C=C/C(=O)C1=C(O)/C(=C/C(=O)O)OC1=O (stereo not given) | – | > 100 µM | – | > 100 | – | > 100 µM | – | > 100 | – | – | – | > 100 | – | > 100 µM | – | > 100 | – | > 100 µM | > 100 µM | – |
| C/C(=N\NC(=O)C[N+](C)(C)C)c1sc(-c2cccnc2)nc1C | – | > 100 µM | – | > 100 | – | > 100 µM | – | > 100 | – | – | – | > 100 | – | > 100 µM | – | – | – | > 100 µM | – | – |
| Cc1coc2c1C(=O)C(=O)c1ccccc1-2 | – | 5.49 µM | – | – | – | – | – | 1.05 | – | – | – | 2.55 | – | 3.18 µM | – | 4.78 | – | 2.97 µM | 3.25 µM | – |
| CC(=O)Oc1ccc2c(c1)[C@@]1(C)CCCC(C)(C)[C@@H]1CC2 | 87.4 µM | > 100 µM | 26 µM | 62.1 | 34.7 µM | > 100 µM | 17.7 µM | 32.1 | 17.8 | 34.2 | 18.5 | 37.4 | 27.5 µM | 90.5 µM | > 100 | > 100 | 19.9 | 35 µM | – | – |
| C[N+](C)(C)CC1CCC(C[N+](C)(C)C)C1=O (stereo not given) | 0.258 µM | 1.47 µM | 4.43 µM | 17.5 | 0.309 µM | 0.995 µM | – | 10.3 | – | 41.3 | – | 23.3 | – | 62.8 µM | – | – | – | 17.1 µM | 21.9 µM | – |
| COC(=O)CCC(=O)N1C/C(=C\c2ccccc2)C(=O)/C(=C/c2ccccc2)C1 | – | > 100 µM | – | 14.3 | – | – | – | 1.59 | – | – | – | 13.5 | – | 10.8 µM | – | 12.2 | – | 2.6 µM | 4.45 µM | – |
| N#Cc1ccc(/C=C(/C(=O)c2ccccc2)c2ccccc2)cc1 | – | > 29.1 µM | – | 42.9 | – | 9.81 µM | – | 10.6 | – | – | – | 31.5 | – | 47.5 µM | – | 8.4 | – | 25 µM | 40 µM | – |
